Results on 2 compounds are retold here after patent US6455533B1, “Pharmaceutical compositions for oral administration, comprising an active substance and a cyclodextrin” (UCB, S.A., priority 1997, dated 2002).

A short description of series [1]: Competition for the complexation with colored indicators. The format is physicochemical. The conditions noted are these: complex with β-cyclodextrin. An excerpt:
In this case, the cetirizine comes into competition with the colored indicator for the formation of an inclusion complex. The changes in the visible-range spectrum thus make it possible to determine whether or not cetirizine forms an inclusion complex with cyclodextrin. Two acid-base indicators were used; crystal violet and methyl orange. In the case of the acid-base indicators, the changes in the absorption spectrum due to complexation with a cyclodextrin are often large given that the complexation brings about a change in the pK of the indicator. If the pH of the solution is close to the pK, the addition of a cyclodextrin to an acid-base indicator solution brings about ionization or deionization of the indicator, which is reflected by a change in the color of the solution. Consequently, the absorption maximum in the visible spectrum is displaced as a function of the degree of complexation. […] (J.

For series [2] the following is noted: pH 3.4. Here is the method:
Two solutions A and B were prepared. […] These two solutions were stirred at room temperature until thermodynamic equilibrium was reached.

Where a name gives a salt, the structure may show the parent alone.

Turning to `O=C(O)COCCN1CCN(C(c2ccccc2)c2ccc(Cl)cc2)CC1` (stereo not drawn) [cetirizine dihydrochloride, 2-[2-[4-[(4-chlorophenyl)phenylmethyl]-1-piperazinyl]ethoxy]acetic acid], the “association constant (average value)” value in series [1] (competition with crystal violet) is 3292 mol⁻¹; in series [1] (competition with methyl orange), 3587 mol⁻¹.
As to `OC[C@H]1O[C@@H]2O[C@H]3[C@H](O)[C@@H](O)[C@@H](O[C@H]4[C@H](O)[C@@H](O)[C@@H](O[C@H]5[C@H](O)[C@@H](O)[C@@H](O[C@H]6[C@H](O)[C@@H](O)[C@@H](O[C@H]7[C@H](O)[C@@H](O)[C@@H](O[C@H]8[C@H](O)[C@@H](O)[C@@H](O[C@H]1[C@H](O)[C@H]2O)O[C@@H]8CO)O[C@@H]7CO)O[C@@H]6CO)O[C@@H]5CO)O[C@@H]4CO)O[C@@H]3CO` [β-cyclodextrin], the “increase of solubility (factor)” value in series [2] is “at least 30”.
